From US8629272B2, “Tricyclic pyrimidine derivatives as wnt antagonists” (Deutsches Krebsforschungszentrum, priority 2009, dated 2014) come the findings set out here.

The data set concerns human fibroblasts HS-68. The data set is described as follows: Cell line specific cytotoxicity, count of Hoechst labeled nuclei, normal cells HS68. Type of data set: cell-based. As for the experimental part:
For examination of cell line-specific cytotoxicity, compounds were applied to human colorectal cancer cells (HCT116, denoted (1); SW480, denoted (2); Dld-1, denoted (3)) and human fibroblasts (HFF-1, denoted (4); HS-68, denoted (5)), cultured in Mc Coy's (1) and Dulbecco's Modified Eagles Medium (2-5), supplemented with 10% ((1)-(3)) and 20% ((4), (5)) fetal calf serum and 1% penicillin/streptomycin. Cells were grown in T75 flasks at 37° C., 5% CO2 and trypsinized when 60-80% confluent by adding 2 ml of 0.25% Trypsin-EDTA solution. Cells were then re-suspended into culture medium and approx. 750 cells, suspended in 45 microl medium, were plated into each well of a black 384-well plate for fluorescence imaging experiments. […] Compound incubation was terminated by (a) fixation and (b) permeabilisation of cells, followed by (c) fluorescence labeling of cell nuclei for cytometric quantification or by immunocytochemistry for microscopic evaluation of cell morphology. The three steps were performed by replacing the solution of the previous step in each well of a 384-well plate by (a) 30 microl PBS (phosphate buffered saline) containing 5% PFA (paraformaldehyde), (b) 30 microl PBS containing 0.2% TritonX-100 and (c) 10 microl PBS containing Hoechst-33342 for cytometry or Hoechst-33342, FITC (fluorescein isothiocyanate-) labeled α-tubulin antibodies and TRITC-(tetramethylrhodamine isothiocyanate-) labeled phalloidin antibodies for microscopy. Solutions were incubated for 15 (a,b) and 30 min (c) in the dark at room temperature. Cells were washed twice between each step with 30 microl PBS. The assay system was miniaturized and adapted to automated workflow using liquid-handling robotics.
Cell line-specific cytotoxicity was quantified by counting the number of Hoechst labeled nuclei per well of a 384-well plate using a plate cytometer. Data obtained with the cytometer was analysed using standard data analysis software. […]

Take `CCOC(=O)C1=C(c2ccccc2)c2c(n(-c3ccccc3)c(=O)n3c(-c4ccc(OC)cc4)nnc23)NC1C` (stereo not drawn) [Example 18]: the “Normalized cell count (HS68)” value came to 1 (0.005 micoM); 0.9938 (0.015 micoM); 1.014 (0.046 micoM); 0.9488 (0.137 micoM); 0.9736 (0.412 micoM); 1.014 (1.235 micoM). Also, the “Normalized cell count (HS68)” value reads like this: (3.704 micoM) 0.7952; (11.111 micoM) 0.5499; (33.333 micoM) 0.3651; (100.000 micoM) 0.4385.
Consider `CCOC(=O)C1=C(c2ccccc2)c2c(n(-c3ccccc3)c(=O)n3c(-c4cccc(OC)c4)nnc23)NC1C` (stereo not drawn) [Example 16, 3-(3-Methoxy-phenyl)-7-methyl-4-oxo-5,9-diphenyl-4,5,6,7-tetrahydro-1,2,3a,5,6-pentaaza-cyclopenta[a]naphthalene-8-carboxylic acid ethyl ester], for which the “Normalized cell count (HS68)” value was 1 (0.005 micoM); 0.9904 (0.015 micoM); 1.038 (0.046 micoM); 1.056 (0.137 micoM); 1.111 (0.412 micoM); 1.051 (1.235 micoM). Moreover, the “Normalized cell count (HS68)” value is reported as 1.175 (3.704 micoM), 1.144 (11.111 micoM), 0.8005 (33.333 micoM) and 0.9046 (100.000 micoM).
With `CCOC(=O)C1=C(C)Nc2c(c3nnc(-c4cccc(OC)c4)n3c(=O)n2-c2ccccc2)C1c1ccccc1` (stereo not drawn) [Example 15, 3-(3-Methoxy-phenyl)-7-methyl-4-oxo-5,9-diphenyl-4,5,6,9-tetrahydro-1,2,3a,5,6-pentaaza-cyclopenta[a]naphthalene-8-carboxylic acid ethyl ester], the “Normalized cell count (HS68)” value by setting is: (0.005 micoM) 1; (0.015 micoM) 0.9166; (0.046 micoM) 1.018; (0.137 micoM) 0.9967; (0.412 micoM) 0.9484; (1.235 micoM) 0.961. Further, the “Normalized cell count (HS68)” value (3.704 micoM) turned out to be 0.9772, the “Normalized cell count (HS68)” value (11.111 micoM) turned out to be 0.9757, the “Normalized cell count (HS68)” value (33.333 micoM) was 0.9593 and the “Normalized cell count (HS68)” value (100.000 micoM) was 0.9099.
